In PubChem BioAssay AID2060495 (Molecular Pharmacology Branch, DTP, NCI, 2025):

System: 521955-158-R2-J5-PDC complex spheroid viability
Assay: Anticancer human tumor 521955-158-R2-J5-PDC patient-derived pancreatic carcinoma cell line growth inhibition [GQUAD]
Conditions: for IC50: curve of first compound; for viability, T/C: stronger effect = lower value
How it was run: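 Viability of tumor cells grown as complex spheroids with endothelial and stromal cells, exposed to drug combinations. Top concentration at or near clinical Cmax (else 10 microM), diluted in half-log increments.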

[1] = second compound 0.0316 µM, first compound 0.0316 µM
[2] = second compound 0.0316 µM, first compound 0.1 µM
[3] = second compound 0.0316 µM, first compound 0.316 µM
[4] = second compound 0.0316 µM, first compound 1 µM
[5] = second compound 0.0316 µM, first compound 3.16 µM
[6] = second compound 0.0316 µM, first compound 10 µM
[7] = second compound 0.1 µM, first compound 0.0316 µM
[8] = second compound 0.1 µM, first compound 0.1 µM
[9] = second compound 0.1 µM, first compound 0.316 µM
[10] = second compound 0.1 µM, first compound 1 µM
[11] = second compound 0.1 µM, first compound 3.16 µM
[12] = second compound 0.1 µM, first compound 10 µM
[13] = second compound 0.316 µM, first compound 0.0316 µM
[14] = second compound 0.316 µM, first compound 0.1 µM
[15] = second compound 0.316 µM, first compound 0.316 µM
[16] = second compound 0.316 µM, first compound 1 µM
[17] = second compound 0.316 µM, first compound 3.16 µM
[18] = second compound 0.316 µM, first compound 10 µM
[19] = second compound 1 µM, first compound 0.0316 µM
[20] = second compound 1 µM, first compound 0.1 µM
[21] = second compound 1 µM, first compound 0.316 µM
[22] = second compound 1 µM, first compound 1 µM
[23] = second compound 1 µM, first compound 3.16 µM
[24] = second compound 1 µM, first compound 10 µM
[25] = second compound 3.16 µM, first compound 0.0316 µM
[26] = second compound 3.16 µM, first compound 0.1 µM
[27] = second compound 3.16 µM, first compound 0.316 µM
[28] = second compound 3.16 µM, first compound 1 µM
[29] = second compound 3.16 µM, first compound 3.16 µM
[30] = second compound 3.16 µM, first compound 10 µM
[31] = second compound 10 µM, first compound 0.0316 µM
[32] = second compound 10 µM, first compound 0.1 µM
[33] = second compound 10 µM, first compound 0.316 µM
[34] = second compound 10 µM, first compound 1 µM
[35] = second compound 10 µM, first compound 3.16 µM
[36] = second compound 10 µM, first compound 10 µM
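Note: spheroids exposed to agents for one week before reading.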
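Throughout, for viability, T/C: 100% = DMSO vehicle control viability.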

CCCS(=O)(=O)Nc1ccc(F)c(C(=O)c2c[nH]c3ncc(-c4ccc(Cl)cc4)cc23)c1F + Cc1[nH]c2ccc(F)cc2c1-c1nc2c3cccnc3c3ncccc3c2[nH]1
IC50 (second compound 0.0316 µM): > 10 µM | IC50 (second compound 0.1 µM): > 10 µM | IC50 (second compound 0.316 µM): > 10 µM | IC50 (second compound 1 µM): > 10 µM | IC50 (second compound 3.16 µM): > 10 µM | IC50 (second compound 10 µM): > 10 µM | viability, T/C [1]: 103% | viability, T/C [2]: 95.9% | viability, T/C [3]: 79.8% | viability, T/C [4]: 105% | viability, T/C [5]: 198% | viability, T/C [6]: 112% | viability, T/C [7]: 104% | viability, T/C [8]: 86% | viability, T/C [9]: 72.1% | viability, T/C [10]: 97.4% | viability, T/C [11]: 226% | viability, T/C [12]: 96.9% | viability, T/C [13]: 97.2% | viability, T/C [14]: 95.5% | viability, T/C [15]: 78.6% | viability, T/C [16]: 101% | viability, T/C [17]: 226% | viability, T/C [18]: 105% | viability, T/C [19]: 99.9% | viability, T/C [20]: 88.6% | viability, T/C [21]: 78.1% | viability, T/C [22]: 102% | viability, T/C [23]: 272% | viability, T/C [24]: 95.2% | viability, T/C [25]: 92.3% | viability, T/C [26]: 76% | viability, T/C [27]: 65% | viability, T/C [28]: 220% | viability, T/C [29]: 265% | viability, T/C [30]: 99.9% | viability, T/C [31]: 99.8% | viability, T/C [32]: 84.9% | viability, T/C [33]: 64.9% | viability, T/C [34]: 173% | viability, T/C [35]: 258% | viability, T/C [36]: 84.6%

CC[C@@]1(O)C(=O)OCc2c1cc1n(c2=O)Cc2cc3c(CN(C)C)c(O)ccc3nc2-1 + Cc1[nH]c2ccc(F)cc2c1-c1nc2c3cccnc3c3ncccc3c2[nH]1
IC50 (second compound 0.0316 µM): 0.0542 µM | IC50 (second compound 0.1 µM): 0.0656 µM | IC50 (second compound 0.316 µM): 0.0663 µM | IC50 (second compound 1 µM): 0.0672 µM | IC50 (second compound 3.16 µM): 0.061 µM | IC50 (second compound 10 µM): 0.0693 µM | viability, T/C (second compound 0.0316 µM, first compound 0.000999 µM): 108% | viability, T/C (second compound 0.0316 µM, first compound 0.00316 µM): 96.6% | viability, T/C (second compound 0.0316 µM, first compound 0.00999 µM): 123% | viability, T/C [1]: 69.8% | viability, T/C (second compound 0.0316 µM, first compound 0.0999 µM): 29% | viability, T/C [3]: 9.65% | viability, T/C (second compound 0.1 µM, first compound 0.000999 µM): 90.7% | viability, T/C (second compound 0.1 µM, first compound 0.00316 µM): 115% | viability, T/C (second compound 0.1 µM, first compound 0.00999 µM): 100% | viability, T/C [7]: 91.8% | viability, T/C (second compound 0.1 µM, first compound 0.0999 µM): 26% | viability, T/C [9]: 10.2% | viability, T/C (second compound 0.316 µM, first compound 0.000999 µM): 104% | viability, T/C (second compound 0.316 µM, first compound 0.00316 µM): 120% | viability, T/C (second compound 0.316 µM, first compound 0.00999 µM): 109% | viability, T/C [13]: 84.7% | viability, T/C (second compound 0.316 µM, first compound 0.0999 µM): 30.9% | viability, T/C [15]: 9.94% | viability, T/C (second compound 1 µM, first compound 0.000999 µM): 115% | viability, T/C (second compound 1 µM, first compound 0.00316 µM): 97% | viability, T/C (second compound 1 µM, first compound 0.00999 µM): 115% | viability, T/C [19]: 95.3% | viability, T/C (second compound 1 µM, first compound 0.0999 µM): 26.1% | viability, T/C [21]: 9.43% | viability, T/C (second compound 3.16 µM, first compound 0.000999 µM): 115% | viability, T/C (second compound 3.16 µM, first compound 0.00316 µM): 108% | viability, T/C (second compound 3.16 µM, first compound 0.00999 µM): 103% | viability, T/C [25]: 70.8% | viability, T/C (second compound 3.16 µM, first compound 0.0999 µM): 34.1% | viability, T/C [27]: 10.8% | viability, T/C (second compound 10 µM, first compound 0.000999 µM): 91.8% | viability, T/C (second compound 10 µM, first compound 0.00316 µM): 98% | viability, T/C (second compound 10 µM, first compound 0.00999 µM): 97.9% | viability, T/C [31]: 84.7% | viability, T/C (second compound 10 µM, first compound 0.0999 µM): 33.8% | viability, T/C [33]: 15.6%

C=CC(=O)N1CCN(c2nc(=O)n(-c3c(C)ccnc3C(C)C)c3nc(-c4c(O)cccc4F)c(F)cc23)C(C)C1 (stereo unspecified) + Cc1[nH]c2ccc(F)cc2c1-c1nc2c3cccnc3c3ncccc3c2[nH]1
IC50 (second compound 0.0316 µM): > 10 µM | IC50 (second compound 0.1 µM): > 10 µM | IC50 (second compound 0.316 µM): > 10 µM | IC50 (second compound 1 µM): > 10 µM | IC50 (second compound 3.16 µM): > 10 µM | IC50 (second compound 10 µM): > 10 µM | viability, T/C [1]: 90.3% | viability, T/C [2]: 101% | viability, T/C [3]: 97.7% | viability, T/C [4]: 94.3% | viability, T/C [5]: 124% | viability, T/C [6]: 67.2% | viability, T/C [7]: 93% | viability, T/C [8]: 106% | viability, T/C [9]: 117% | viability, T/C [10]: 102% | viability, T/C [11]: 102% | viability, T/C [12]: 74.8% | viability, T/C [13]: 80.9% | viability, T/C [14]: 96.9% | viability, T/C [15]: 106% | viability, T/C [16]: 104% | viability, T/C [17]: 100% | viability, T/C [18]: 77.9% | viability, T/C [19]: 92.9% | viability, T/C [20]: 102% | viability, T/C [21]: 107% | viability, T/C [22]: 110% | viability, T/C [23]: 128% | viability, T/C [24]: 93.2% | viability, T/C [25]: 93.9% | viability, T/C [26]: 105% | viability, T/C [27]: 98% | viability, T/C [28]: 118% | viability, T/C [29]: 121% | viability, T/C [30]: 79.4% | viability, T/C [31]: 98.2% | viability, T/C [32]: 98.3% | viability, T/C [33]: 118% | viability, T/C [34]: 129% | viability, T/C [35]: 129% | viability, T/C [36]: 101%
